In brackets after ≈: the same amount, converted by molar mass. Read-outs that look alike come from different tables or passages of the source. Ends that are not written are not given here.
Tests used:
E. coli MG1655 [1] = test: MIC assay, broth microdilution, aerobic growth; type: cell-based; conditions: E. coli MG1655, EZRDM, 30°C, 6 hr, two-fold serial dilutions, reproducible to the same factor of two
Experimental: (§1) We have measured MICs in aerobic and anaerobic fermentation conditions using a series of two-fold dilutions for the four natural AMPs in the same rich, chemically defined EZRDM medium at 30°C (Table 1). The MIC in anaerobic fermentation conditions is 4-fold higher for LL-37 and 8-fold higher for melittin. […] For cecropin A and for indolicidin, the MIC is the same in aerobic and fermentation conditions. Evidently the activity against E. coli of some, but not all, natural AMPs is enhanced by the presence of oxygen. For LL-37, the primary focus of this study, we also measured the MIC in conditions enabling anaerobic respiration (no oxygen, but supplemented with 10 mM KNO3; Table 2).
The aerobic MIC values for the various AMPs (Table 1) were determined using the broth microdilution method as previously described. Two-fold serial dilutions of LL-37 in 1× EZRDM were performed in separate rows of a polystyrene 96-well plate, with each plate containing an inoculum of E. coli MG1655. The inoculum was a 1:20 dilution from a bulk culture at midlog phase (OD600 = 0.5) grown at 30°C. The plate was incubated at 30°C and shaken at 200 rpm in a Lab-Line Orbital Environ Shaker (model 3527) for 6 hr. The MIC value was taken as the lowest concentration for which no growth was discernible (<0.05 OD) after 6 hr.

E. coli MG1655 [2] = test: MIC assay, anaerobic fermentation (oxygen scavenged with PCA/PCD); type: cell-based; conditions: E. coli MG1655, EZRDM, 30°C, 6 hr, PCA 10 mM / PCD 100 nM
Experimental: as §1
Anaerobic MIC values (Table 1) were measured on a 96-well plate that was sealed with plastic wrap. Cells were incubated in EZRDM containing protocatechuic acid (PCA) at 10 mM and protocatechuate 3,4-dioxygenase (PCD) at 100 nM to scavenge oxygen. The plate was incubated at 30°C for 6 hr, followed by OD measurements.

E. coli MG1655 [3] = conditions: cited from earlier work
Experimental: Table 1 Antimicrobial peptides and their MICs for E. coli MG1655 in aerobic growth vs anaerobic fermentation in EZRDM at 30°C. | column: MIC (μM) ^1 / Aerobic || Additional evidence that the onset of strong CellROX* fluorescence coincides with entry of LL-37 into the periplasm comes from two-color imaging experiments using CellROX Green and a red fluorescent variant of the peptide, Rh-LL-37. […] Under aerobic growth conditions, at t = 0 we flowed 25 μM CellROX Green plus 8 μM Rh-LL-37 across plated E. coli cells. As before, wea ... || To test for the importance of LL-37 stereochemistry on the magnitude of oxidative effects, we repeated the CellROX* assay in aerobic conditions using 4 μM of the all-D stereoisomer of LL-37. […] In addition, our earlier work found the same MIC for D- and L-LL-37 [19].

MG1655 E. coli = type: cell-based; conditions: 8 μM Rh-LL-37 + 25 μM CellROX Green, aerobic, 59 cells from three repeats
E. coli MG1655 [4] = system: E. coli MG1655; design: method as in 2 sources, one per row (each row's own in cited_ref): ref 20 = [20]; PMID 25561551; doi:10.1073/pnas.1417703112; 20 Choi H , Yang Z , Weisshaar JC . Single-cell, real-time detection of oxidative stress induced in Escherichia coli by the antimicrobial peptide CM15 . Proc Natl Acad Sci U S A . 2015; 112 ( 3 ): E3 ||| ref 22 = [22]; PMID 26493221; doi:10.1021/acschembio.5b00547; 22 Choi H , Chakraborty S , Liu R , Gellman SH , Weisshaar JC . Single-Cell, Time-Resolved Antimicrobial Effects of a Highly Cationic, Random Nylon-3 Copolymer on Live Escherichia coli . ACS Chem Biol; conditions: cited from earlier work

In the case of `CC[C@H](C)[C@H](N)C(=O)N[C@@H](CC(C)C)C(=O)N1CCC[C@H]1C(=O)N[C@@H](Cc1c[nH]c2ccccc12)C(=O)N[C@@H](CCCCN)C(=O)N[C@@H](Cc1c[nH]c2ccccc12)C(=O)N1CCC[C@H]1C(=O)N[C@@H](Cc1c[nH]c2ccccc12)C(=O)N[C@@H](Cc1c[nH]c2ccccc12)C(=O)N1CCC[C@H]1C(=O)N[C@@H](Cc1c[nH]c2ccccc12)C(=O)N[C@@H](CCCNC(=N)N)C(=O)N[C@@H](CCCNC(=N)N)C(N)=O` [Indolicidin], the “MIC (μM) Aerobic” value (E. coli MG1655 [1]) is reported as 32 µM (≈ 61 µg/mL) and the “MIC (μM) Fermentation” value (E. coli MG1655 [2]) is reported as 32 µM (≈ 61 µg/mL).
For Rhodamine B-LL-37 [Rh-LL-37], the “MIC compared with unlabeled L-LL-37” value (E. coli MG1655 [3]; MG1655 E. coli) is given as “the same MIC” and the “Timing of CellROX* fluorescence relative to periplasmic Rh-LL-37 fluorescence” value (MG1655 E. coli) is given as “rise on the same time scale”.
With “KWKLFKKIEKVGQNIRDGIIKAGPAVAVVGQATQIAK-NH2 [Cecropin A]” the “MIC (μM) Aerobic” value (E. coli MG1655 [1]) was 0.9 µM and the “MIC (μM) Fermentation” value (E. coli MG1655 [2]) was 0.9 µM.
In the case of CM15, the “MIC (μM) Aerobic” value (E. coli MG1655 [3]; E. coli MG1655, EZRDM, 30°C, aerobic, CM15 from earlier study) is given as 5 µM, the “MIC (μM) Fermentation” value (E. coli MG1655 [4]; E. coli MG1655, EZRDM, 30°C, anaerobic fermentation, CM15 from earlier study) is given as 100 µM and the “MIC in anaerobic (fermentation) relative to aerobic growth” value (E. coli MG1655 [4]; E. coli, fold higher in anaerobic) is given as 20 fold.
